Key:
[1] = system: noise-induced hearing loss (NIHL) in CBA mice; test: ABR threshold recovery after traumatizing noise exposure in mice; assay type: in vivo, mouse
Procedure: (§1) To determine if the glatiramer acetate (GA) prevents or reduces hearing loss in mice following exposure to traumatizing noise, following determination of baseline acoustic thresholds (i.e., pre-noise exposure thresholds), hearing sensitivity and input-output relationships was assessed during the post-noise exposure period using auditory evoked brainstem responses (ABRs) and distortion product otoacoustic emissions (DPOAEs); DPOAEs were studied using the same protocol as in ABR-based studies to separate findings associated with neural and sensory outcomes. Responses to tone burst stimuli was acquired immediately following noise exposure, daily during the early post-exposure period, and intermittently thereafter for six (6) months to generally assess the long-term outcome of exposure to traumatizing noise in CBA mice. Morphological correlates of final treatment outcomes, including sensory and support cell (cytocochleograms), synapses between hair cells and spiral ganglion dendrites, and SGN survival estimates, was made at the end of the acute phase (2 months following noise exposure) or at 6 months to assess long-term outcomes.
The traumatizing noise used in CBA mouse studies was an octave band of white noise centered on 11.3 kHz and was presented at 109 dB SPL for 30 min. Because of well-documented differences in the abilities of males and females to mount inflammatory responses, both males and females were included in this investigation.
In mice, GA (100 mg/kg) was administered following two treatment strategies. In Group 1, GA was administered in sequential doses one month and one week prior to noise exposure (the “protection” approach), with supplementary doses on a daily basis for the first 4 days following noise exposure and again on the 7th and 14th post-exposure days in mice, to determine if GA can prevent permanent hearing loss associated with traumatizing noise. In Group 2, GA was administered only during the post-noise exposure period in an effort to determine if GA can rescue hearing following acute trauma. In a subset of animals, GA was administered prior to noise exposure and then daily for the first ten post-exposure days. Complete Freund's adjuvant will be used to deliver the first dose of the agent to determine if GA actions might be potentiated (boosted) when delivered in an emulsified form in a separate group of mice.
An example of findings associated with this experimental design is shown in FIG. 2, in which families of ABR threshold-frequency curves (audiograms) generated by tracking sensitivity according to the “protection” protocol reviewed above in a GA-treated animal (right panel) and a saline-treated control (left panel) that were exposed to noise simultaneously are shown.
With this example, to determine if treatment with GA alone reduces the amount of temporary and permanent hearing loss and/or accelerates the rate of recovery from temporary threshold shift (TTS), groups of mice received GA or saline and were evaluated as described above.

[2] = system: noise-induced hearing loss (NIHL) in CBA mice; test: DPOAE input-output curves (outer hair cell function) after noise exposure in mice; assay type: in vivo; settings: one GA-treated mouse relative to saline-treated; 14 days following noise exposure; f2=11.3 kHz; FIG. 4
Procedure: as §1
The traumatizing noise used in CBA mouse studies was an octave band of white noise centered on 11.3 kHz and was presented at 109 dB SPL for 30 min. […]

IL-4 = test: qRT-PCR cytokine expression after noise exposure: IL-4; assay type: in vivo, mouse; settings: GA-treated mice, 10 days following noise exposure (Group 1), spleen tissues, FIG. 6
Procedure: (§2) To determine if GA affects cytokine expression, groups of mice received GA as described above, and cytokine expression was evaluated via RT-PCR. […]

interferon-gamma = test: qRT-PCR cytokine expression after noise exposure: interferon-gamma; assay type: in vivo, mouse; settings: GA-treated mice, 10 days following noise exposure (Group 1), spleen tissues, FIG. 6
Procedure: as §2

IL-2 = test: qRT-PCR cytokine expression after noise exposure: IL-2; assay type: in vivo, mouse; settings: GA-treated mice, 10 days following noise exposure (Group 1), FIG. 7
Procedure: (§3) To determine if GA affects cytokine expression, groups of mice received GA as described above, and cytokine expression was evaluated via RT-PCR.
(§4) Using RT-PCR, the effects of GA on cytokine expression in the cochlea, specifically those mediators associated with pro- or anti-inflammatory activity, was established.

IL-17 = test: qRT-PCR cytokine expression after noise exposure: IL-17; assay type: in vivo, mouse; settings: GA-treated mice, 10 days following noise exposure (Group 1), FIG. 7
Procedure: as §3, §4

TNF-alpha = test: qRT-PCR cytokine expression after noise exposure: TNF-alpha; assay type: in vivo, mouse; settings: GA-treated mice, 10 days following noise exposure (Group 1), FIG. 7
Procedure: as §3, §4

TGF-β = test: qRT-PCR cytokine expression after noise exposure: TGF-β; assay type: in vivo, mouse; settings: GA-treated mice, spleen tissues
Procedure: as §3, §4

Glatiramer acetate [GA]
Total extent of recovery following exposure (cohort) ([1]; GA cohort, control animals approximately 17 dB, FIG. 5): ~25 dB
Threshold recovery during the first 10 days following exposure relative to saline-treated controls and GA-treated mice below criterion ([1]; GA-treated mice with at least 3.4-fold IL-4 increase, stimulus frequencies within the noise band (8.0, 11.3 and 16.0 kHz), FIG. 9): greater
Overall threshold recovery from NIHL relative to saline-treated controls and GA-treated mice below criterion ([1]; GA-treated mice with at least 3.4-fold increase in IL-4 expression (criterion), FIG. 8): significantly greater
Recovery with GA treatment alone compared with saline controls ([1]; P<0.05): significantly enhanced
Recovery from NIHL (ABR threshold-frequency curves) ([1]; one GA-treated mouse, protection protocol, GA 100 mg/kg, frequencies at and immediately above noise centre frequency 11.3 kHz, first 14 days after exposure, FIG. 2, 3): nearly complete
Recovery of outer hair cell (OHC) function, DPOAE input-output curves [2]: nearly complete recovery
Expression of anti-inflammatory cytokine IL-4, fold greater than controls (IL-4): 2.6 fold
Interferon-gamma expression, reduction re controls (interferon-gamma): 66%
IL-2 expression (IL-2): down-regulated
IL-17 expression (IL-17): down-regulated
TNF-α expression (TNF-alpha): down-regulated
TGF-β expression (TGF-β): up-regulation

Source: patent publication US9763992B2, “Treatment of noise induced hearing loss” (Father Flanagan's Boys' Home, priority 2014, dated 2017)
